In the experiment the target is T1, PAF receptor (vital human blood platelets) (Homo sapiens, UniProt P25105).
T1 construct: endogenous in cells; host or cells: vital human blood platelets (thrombocytes) from blood samples of healthy donors, purified on Sepharose CL-2B
Description: [3H]PAF receptor binding to vital human blood platelets. The note with it: [3H]PAF 30 pmolar, 90 minutes, ambient temperature, Ki calculated from IC50. As for the experimental part: [^3 H]PAF receptor binding to vital human blood platelets
This experiment determined the competitive interaction of the test substances (in this case PAF-antagonists) with the known interaction of the radioligand [^3 H]PAF to the same receptor.
The bonding studies were carried out on vital human thrombocytes. Blood samples from healthy donors were diluted with ACD buffer and centrifuged (15 minutes, 160×g). The platelet-rich plasma was purified by chromatography on Sepharose CL-2B (for eluting: HEPES buffer, pH 7.4, 20° C.).
Defined quantities (e.g., 800 μl) of the platelet suspension were incubated for 90 minutes at ambient temperature with:
a) a 30 pmolar [^3 H]PAF solution diluted with buffer;
b) a 30 pmolar [^3 H]PAF solution which simultaneously contains a μmolar (non-labelled) PAF solution; and
c) a 30 pmolar [^3 H]PAF solution and the solutions of the test substances (different concentrations).
Incubation a) was used to determine total binding. Incubation b) was used to determine non-specific binding.
The reaction was stopped by vacuum filtering. The filters with the blood platelets were mixed with scintillation liquid and the residual radioactivity was measured in a counter. The specific binding was obtained from the total binding minus the non-specific binding. […]

T1 sequence (P25105 whole entry): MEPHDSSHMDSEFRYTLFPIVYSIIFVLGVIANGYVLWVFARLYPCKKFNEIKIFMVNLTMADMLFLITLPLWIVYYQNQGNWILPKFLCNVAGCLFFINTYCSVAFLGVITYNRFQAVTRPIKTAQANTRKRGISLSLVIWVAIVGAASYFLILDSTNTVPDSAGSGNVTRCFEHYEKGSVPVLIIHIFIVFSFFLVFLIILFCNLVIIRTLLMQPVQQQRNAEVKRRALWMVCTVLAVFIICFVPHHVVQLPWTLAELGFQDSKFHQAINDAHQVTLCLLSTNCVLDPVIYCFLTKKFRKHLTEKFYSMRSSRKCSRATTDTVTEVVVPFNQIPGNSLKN

By Ki is commonly meant the dissociation constant of the complex between target and ligand, obtained from inhibition or displacement. As to `Cc1nnc2n1-c1sc3c(c1C(c1ccc(CCc4ccc(C(F)(F)F)cc4)cc1)=NC2C)CCC3` (racemic) [Compound 1], the Ki was 0.79 nM.

With `Cc1nnc2n1-c1sc3c(c1C(c1ccc(CCc4ccc(C(F)(F)F)cc4)cc1)=N[C@H]2C)CCC3` [Compound 2], the Ki was 0.47 nM.

(Values after patent publication US5185442A, “New diazepines substituted in the 6-position, processes for their preparation and their use as pharmaceutical compositions” (Boehringer Ingelheim KG, priority 1991, dated 1993).)
